For assay [1], the target named is T1, AurA (Homo sapiens, UniProt O14965).
T1 sequence (O14965 1-403): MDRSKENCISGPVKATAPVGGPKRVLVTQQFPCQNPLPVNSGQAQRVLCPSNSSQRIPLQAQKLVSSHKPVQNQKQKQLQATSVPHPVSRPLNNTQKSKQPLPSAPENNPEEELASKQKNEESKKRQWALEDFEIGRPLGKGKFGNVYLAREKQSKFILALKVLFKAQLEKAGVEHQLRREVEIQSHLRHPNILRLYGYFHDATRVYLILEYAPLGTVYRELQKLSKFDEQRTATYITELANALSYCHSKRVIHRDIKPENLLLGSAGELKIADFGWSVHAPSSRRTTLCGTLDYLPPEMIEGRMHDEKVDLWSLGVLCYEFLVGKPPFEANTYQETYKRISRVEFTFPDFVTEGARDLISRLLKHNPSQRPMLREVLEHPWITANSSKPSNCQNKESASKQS
The assay can be described thus: KINOMEscan primary screen against AurA. It is filed as binding. The conditions noted are these: % of control. How it is done:
Compounds were initially tested in a primary screen against TrkA (at 10 and 100 nM) and AurA (at 100 nM and 1 μM) using the KINOMEscan technology from DiscoverX Corporation, Fremont, Calif., USA (https://www.discoverx.com/services/drug-discovery-development-services/kinase-profiling/kinomescan).

Assay [2] has as its target T1, AurA. In words: KdELECT Kd measurement (KINOMEscan), AurA. It is filed as binding. How it is done: Kd measurements were done via the KdELECT product service from DiscoverX Corporation (Freemont, Calif., USA) which also employs the KINOMEscan technology. Here, inhibitor binding constants (Kd values) are calculated from duplicate 11-point dose-response curves.
Assay [3] addresses full-length human TrkA receptor (Homo sapiens, UniProt P04629). In words: PathHunter cellular functional assay, antagonism of β-NGF. It is filed as cell-based. The conditions noted are these: antagonism at EC80 (0.03 μg/ml) of β-NGF; read-out: Cellular assay [RC50]. The text has this: The two compounds a1 and b7 were additionally tested in a functional assay using the PathHunter® technology (DiscoverX Corporation, Freemont, Calif., USA; https://www.discoverx.com/technologies-platforms/enzyme-fragment-complementation-technoloqy/cell-based-efc-assays/protein-protein-interactions/kinases-cell-based-(rtk-ctk)). In this assay, the full-length human TrkA receptor (i.e. including ligand-binding and kinase domains) is expressed as a C-terminal (intracellular) fusion with a small peptide epitope, called Prolink™ (PK). Furthermore, a SH2 domain containing protein (i.e. Shc1) is co-expressed with a larger Enzyme Acceptor (EA) fragment. Activation of the TrkA receptor by adding the agonist ligand (β-NGF), leads to the auto-phosphorylation of the kinase and subsequent binding of the Shc1-EA protein. That recruitment results in an active B-galactosidase enzyme that is detected by addition of a chemiluminescent substrate.
Compounds were tested for antagonism using EC80 concentration (i.e. 0.03 μg/ml) of β-NGF. Data was normalized to the maximal and minimal response observed in the presence of EC80 agonist ligand (3-NGF) and vehicle (DMSO, final concentration 1%), respectively.

Molecules are shown by their SMILES.

full-length human TrkA receptor, sequence (P04629 33-796): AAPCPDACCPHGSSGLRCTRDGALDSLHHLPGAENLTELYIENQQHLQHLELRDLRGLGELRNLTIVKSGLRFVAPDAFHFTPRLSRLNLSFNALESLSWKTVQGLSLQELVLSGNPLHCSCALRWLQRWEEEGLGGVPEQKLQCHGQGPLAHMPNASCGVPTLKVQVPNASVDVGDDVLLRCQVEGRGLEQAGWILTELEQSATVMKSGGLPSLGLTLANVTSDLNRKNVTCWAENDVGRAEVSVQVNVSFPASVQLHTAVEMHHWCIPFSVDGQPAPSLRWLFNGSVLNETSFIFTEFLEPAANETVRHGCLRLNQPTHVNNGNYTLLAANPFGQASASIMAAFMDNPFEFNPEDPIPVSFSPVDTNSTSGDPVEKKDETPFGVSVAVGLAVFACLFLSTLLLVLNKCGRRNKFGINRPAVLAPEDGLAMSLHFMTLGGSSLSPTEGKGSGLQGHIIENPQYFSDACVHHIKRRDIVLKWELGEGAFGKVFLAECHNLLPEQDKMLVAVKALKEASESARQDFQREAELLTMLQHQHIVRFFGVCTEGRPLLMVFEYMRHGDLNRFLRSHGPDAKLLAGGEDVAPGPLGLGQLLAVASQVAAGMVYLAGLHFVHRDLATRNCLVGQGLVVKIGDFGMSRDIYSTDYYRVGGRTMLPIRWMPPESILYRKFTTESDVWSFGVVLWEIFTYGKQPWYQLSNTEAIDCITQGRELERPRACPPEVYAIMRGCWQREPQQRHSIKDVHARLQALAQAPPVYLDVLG
full-length human TrkA receptor, sequence (P01138 122-241 partner): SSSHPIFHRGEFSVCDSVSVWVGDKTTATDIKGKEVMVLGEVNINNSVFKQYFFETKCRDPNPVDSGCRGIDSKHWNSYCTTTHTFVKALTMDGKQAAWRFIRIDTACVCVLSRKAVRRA

By Kd is commonly meant the equilibrium constant for the complex coming apart. A lower Kd goes with higher affinity. In the case of `CN1CCN(c2cc(Nc3cc(-c4cccc(F)c4)[nH]n3)nc(Sc3ccccc3)n2)CC1` [a1, N-[5-(3-fluorophenyl)-1H-pyrazol-3-yl]-6-(4-methylpiperazin-1-yl)-2-(phenylsulfanyl)pyrimidin-4-amine], the “% Ctrl. AurA @100 nM” value in assay [1] (100 nM compound) came to 97 % Ctrl. For the same molecule, the “% Ctrl. AurA @1 μM” value in assay [1] (1 μM compound) was 92 % Ctrl. For the same molecule, in assay [2], the “AurA [pKd]” value amounted to 5.3. Moreover, the Kd in assay [2] (duplicate 11-point dose-response curves) turned out to be 4500 nM. In addition, the IC50 in assay [3] came out at 26 nM.

The values are drawn from patent publication US20200399250A1, “Pyrimidine Derivatives as Tropomyosin Receptor Kinase A (TRKA) Inhibitors” (BIOMED X GMBH, priority 2017, published 2020).
